Results: patent US11541099B2, “Flounder surimi having antioxidant and antihypertensive effects and method of preparing the same” (Jeju National University Industry-Academic Cooperation …, priority 2017, dated 2023)
≈ marks a conversion by molar mass, not a printed value. Residues, ends and D or L forms follow the SMILES beside them. No end group written: not given here.

Experiments:
[1] = Alkyl radical scavenging activity by ESR; conditions: peptides isolated from Fraction 2
Method: In order to identify the radical scavenging ability using ESR (electron spin resonance spectrometer, JES-FA ESR, JEOL, Japan), ESR equipment owned by the Center for University-Wide Research Facilities, Jeju University was used and was in accordance with a modified version of the method by Hiramoto (1993). 20 μL of a sample was mixed with 20 μL of distilled water, 20 μL of 40 mM AAPH and 20 μL of 40 mM POBN were added to the resulting mixture, the reaction was proceeded at 37° C. for 30 minutes and the reaction solution was transferred to a capillary tube. The conditions used for analysis were as follows: central field: 3475 G, modulation width: 0.2 mT, 22 amplitude: 500 mT, scan width: 10 mT, set microwave power: 8 mW.

[2] = target: T1, angiotensin I converting enzyme (ACE) (Oryctolagus cuniculus, UniProt P12822); test: ACE inhibition activity (modified Cushman and Cheung's method); format: biochemical, rabbit; conditions: read-out: concentration inhibiting 50% of ACE (IC50) (converted)
T1 construct: The crude enzyme solution used herein was the supernatant obtained by centrifuging; tissue Sigma-Aldrich Co; host or cells: rabbit lung (acetone powder, crude extract supernatant)
T1 sequence (P12822 34-1310): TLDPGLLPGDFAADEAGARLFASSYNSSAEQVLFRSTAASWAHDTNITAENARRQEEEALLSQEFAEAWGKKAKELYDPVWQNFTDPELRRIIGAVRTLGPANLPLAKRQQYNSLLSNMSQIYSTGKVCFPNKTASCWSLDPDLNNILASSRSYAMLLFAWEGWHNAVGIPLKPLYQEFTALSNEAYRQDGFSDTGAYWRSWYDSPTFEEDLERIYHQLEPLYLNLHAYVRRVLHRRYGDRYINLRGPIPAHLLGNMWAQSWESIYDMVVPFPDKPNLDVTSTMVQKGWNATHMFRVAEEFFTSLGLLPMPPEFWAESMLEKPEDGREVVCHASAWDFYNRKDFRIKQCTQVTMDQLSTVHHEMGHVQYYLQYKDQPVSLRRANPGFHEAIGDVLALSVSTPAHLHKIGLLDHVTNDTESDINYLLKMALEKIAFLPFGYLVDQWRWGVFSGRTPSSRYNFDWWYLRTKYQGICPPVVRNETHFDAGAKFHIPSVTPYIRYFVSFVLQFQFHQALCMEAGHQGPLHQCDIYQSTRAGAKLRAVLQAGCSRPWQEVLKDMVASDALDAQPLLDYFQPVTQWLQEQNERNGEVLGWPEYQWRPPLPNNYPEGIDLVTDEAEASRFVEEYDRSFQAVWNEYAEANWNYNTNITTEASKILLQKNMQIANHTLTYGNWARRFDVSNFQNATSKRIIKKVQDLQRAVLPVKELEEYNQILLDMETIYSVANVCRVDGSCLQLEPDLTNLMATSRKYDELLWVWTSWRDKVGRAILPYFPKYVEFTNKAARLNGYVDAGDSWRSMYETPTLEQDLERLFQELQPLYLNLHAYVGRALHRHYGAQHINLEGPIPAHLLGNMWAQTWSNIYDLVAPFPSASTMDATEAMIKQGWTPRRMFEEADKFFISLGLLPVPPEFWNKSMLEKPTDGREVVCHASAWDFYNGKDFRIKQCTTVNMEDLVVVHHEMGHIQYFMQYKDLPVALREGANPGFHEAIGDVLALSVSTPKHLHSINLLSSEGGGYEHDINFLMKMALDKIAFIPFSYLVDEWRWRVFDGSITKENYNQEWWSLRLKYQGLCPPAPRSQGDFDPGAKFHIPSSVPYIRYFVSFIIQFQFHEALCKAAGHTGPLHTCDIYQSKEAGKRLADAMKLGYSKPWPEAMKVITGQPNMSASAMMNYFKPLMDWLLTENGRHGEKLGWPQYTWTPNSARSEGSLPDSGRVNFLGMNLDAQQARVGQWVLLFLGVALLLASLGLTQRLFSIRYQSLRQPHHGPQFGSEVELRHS
Method: ACE inhibition activity was measured by a modified version of Cushman and Cheung's method. The crude enzyme solution used herein was the supernatant obtained by centrifuging (4° C., 4,000 rpm, 40 min) after extracting a rabbit lung acetone powder (Sigma-Aldrich Co.) at a concentration of 0.2 g/10 mL (w/v) and at 4° C. for 24 hours. The substrate was prepared by dissolving hippurylhistidyl-leucine ([…], Sigma-Aldrich Co.) at a concentration of 5 mg/mL (w/v) in a 0.1 M sodium borate buffer (pH 8.3) containing 0.3 M NaCl.
ACE inhibition activity was determined as follows. 50 μL of an ACE enzyme solution was added to 50 μL of a sample extract, reaction was proceeded at 37° C. for 5 minutes, 50 μL of a substrate was added thereto and the reaction was proceeded at 37° C. for 1 hour. Then, 150 μL of 1N HCl was added to stop the reaction, 750 μL of ethyl acetate was added thereto, and the mixture was stirred for 1 minute and centrifuged (3,500 rpm, 10 min) to obtain 500 μL of the supernatant. The supernatant was completely dried at 105° C. for 4 hours, 2 mL of ethyl acetate was added thereto, and the absorbance was measured at 228 nm. A control group was obtained by adding 50 μL of distilled water, instead of the sample extract.

Molecule	IC50 value Alkyl radical scavenging activity [1] [µg/mL]	IC50 [2] [µM]
VASVI [VASVI, Val-Ala-Ser-Val-Ile]	77	117
NCCCC[C@H](NC(=O)[C@H](Cc1ccc(O)cc1)NC(=O)[C@@H](N)Cc1c[nH]c2ccccc12)C(=O)O [WYK, Trp-Tyr-Lys] (H-Trp-Tyr-Lys-OH; N-terminus and C-terminus assumed)	40 (≈ 80.7 µM)	32.3
CC[C@H](C)[C@H](N)C(=O)N[C@H](C(=O)N[C@@H](CC(=O)O)C(=O)N[C@@H](CCCNC(=N)N)C(=O)O)C(C)C [IVDR, Ile-Val-Asp-Arg] (H-IVDR-OH; N-terminus and C-terminus assumed)	68 (≈ 136 µM)	63.8
